SMILES strings stand for the structures.

Data on 22 compounds can be found in ChEMBL document CHEMBL1121458, “Benzenesulfenamides as antihypertensive agents. Substituted piperidine and 1-arylpiperazine derivatives” (1980).

Holding throughout (type): functional
For assay [1], the system named is Rattus norvegicus. Kind of assay: Antihypertensive activity was measured for systolic pressure using spontaneous hypertensive rats (SHR) at 50 mg/kg after oral administration.
Assay [2] relates to Rattus norvegicus. Kind of assay: Antihypertensive activity was measured for systolic pressure using spontaneous hypertensive rats (SHR) at 25 mg/kg after oral administration.
Assay [3] relates to Rattus norvegicus. Kind of assay: Antihypertensive activity was measured for systolic pressure using spontaneous hypertensive rats (SHR) at 10 mg/kg after oral administration.
For assay [4], the system named is Rattus norvegicus. Put plainly: Antihypertensive activity was measured for systolic pressure using spontaneous hypertensive rats (SHR) at 50 mg/kg.

Turning to `Clc1ccccc1N1CCN(Sc2ccccc2)CC1`, in assay [1], the “Change in systolic pressure” value was 28 mmHg. As to `Cc1ccccc1N1CCN(Sc2ccccc2)CC1`, the “Change in systolic pressure” value in assay [1] is given as 8 mmHg.

Consider `Clc1ccc(N2CCN(Sc3ccccc3)CC2)cc1`, for which the “Change in systolic pressure” value came out at 23.5 mmHg in assay [2] and 44 mmHg in assay [1]. On to `Brc1ccc(OC2CCN(Sc3ccccc3)CC2)cc1`, for which, in assay [1], the “Change in systolic pressure” value is given as -15 mmHg. For `O=C(c1ccccc1)C1CCN(Sc2ccccc2)CC1`, the “Change in systolic pressure” value in assay [2] is reported as -14 mmHg. As to `COc1ccccc1N1CCN(Sc2ccccc2)CC1`, the entries for the “Change in systolic pressure” value in assay [2] and in assay [1] were 27 mmHg and 71 mmHg, respectively. For `c1ccc(SN2CCC3(CC2)OC(c2ccccc2)c2ccccc23)cc1` (stereo not drawn) the same measures were -44 mmHg and -66 mmHg.

On to `Cc1cccc(N2CCN(Sc3ccccc3)CC2)c1`, for which, in assay [3], the “Change in systolic pressure” value worked out at 16 mmHg.

Consider `COc1cccc(N2CCN(Sc3ccccc3)CC2)c1`, for which, in assay [1], the “Change in systolic pressure” value came out at 35 mmHg. For `COc1ccc(N2CCN(Sc3ccccc3)CC2)cc1`, in assay [2], the “Change in systolic pressure” value came out at 7 mmHg. As to `[O-][S+](c1ccccc1)N1CCN(c2ccccn2)CC1` (stereo not drawn), the “Change in systolic pressure” value was found to be 59 mmHg in assay [2], 36 mmHg in assay [3] and 80 mmHg in assay [1]. In the case of `c1ccc(SN2CCN(c3ccccc3)CC2)cc1`, the “Change in systolic pressure” value in assay [2] is listed as 90 mmHg; in assay [3] it was 16.5 mmHg.

With `FC(F)(F)c1cccc(N2CCN(Sc3ccccc3)CC2)c1`, the “Change in systolic pressure” value in assay [1] was 6 mmHg. For the compound `c1ccc(SN2CCC(c3ccccc3)CC2)cc1`, in assay [1], the “Change in systolic pressure” value was -9 mmHg. Consider `c1ccc(CN2CCN(Sc3ccccc3)CC2)cc1`, for which the “Change in systolic pressure” value in assay [2] amounted to 23 mmHg; in assay [1] it was 17 mmHg. For `c1ccc(SN2CCN(c3ccccn3)CC2)cc1` the same measures were 65 mmHg and 40 mmHg. For the compound `[O-][S+](c1ccccc1)N1CCN(c2ccccc2)CC1` (stereo not drawn), the “Change in systolic pressure” value in assay [2] is 42 mmHg; in assay [3] it was 22 mmHg; in assay [1], 83 mmHg. On to `Cc1ccc(C(=O)C2CCN(Sc3ccccc3)CC2)cc1`, for which the “Change in systolic pressure” value in assay [1] is 7 mmHg. Regarding `c1ccc(COC2(c3ccccc3)CCN(Sc3ccccc3)CC2)cc1`, the “Change in systolic pressure” value in assay [4] is on record as 2 mmHg. In the case of `O=S(=O)(c1ccccc1)N1CCN(c2ccccn2)CC1`, the “Change in systolic pressure” value in assay [1] is 5 mmHg.

As to `O=S(=O)(c1ccccc1)N1CCN(c2ccccc2)CC1`, the “Change in systolic pressure” value is recorded as 33 mmHg in assay [2] and 26 mmHg in assay [1]. Regarding `N=C(N)NCCN1CCCCCCC1` [GUANETHIDINE], the “Change in systolic pressure” value in assay [3] was determined as 34 mmHg.
